In patent publication US7470715B2, “Estrogen modulators” (Pfizer Inc., priority 2005, dated 2008):

Columns and labels:
[1] = target: T1, ligand binding domain of the estrogen receptor alpha chain (ERαLBD) (Homo sapiens, UniProt P03372); experiment: ER agonist cell assay (ERα), Huh-7 co-transfection, luciferase; type: cell-based; conditions: for EC50: Huh-7 cells co-transfected with pG5luc and ERαLBD, overnight incubation, luciferase; for ERα % of Max E2 Response: percent of the maximum estradiol fold change, Huh-7, pG5luc and ERαLBD
T1 construct: expressed in transfected cells; host or cells: Huh-7 human hepatoma cells, transient transfection with FuGENE 6
T1 sequence (P03372 311-547 limits assumed): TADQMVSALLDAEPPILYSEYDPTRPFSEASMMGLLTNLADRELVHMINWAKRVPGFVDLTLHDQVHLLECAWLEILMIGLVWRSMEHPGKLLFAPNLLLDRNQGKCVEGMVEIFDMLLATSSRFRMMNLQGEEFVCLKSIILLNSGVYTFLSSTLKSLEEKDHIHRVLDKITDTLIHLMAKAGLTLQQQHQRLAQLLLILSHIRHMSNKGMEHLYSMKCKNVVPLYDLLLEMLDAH
Method: (§1) The compounds ability to mimic the effects of estrogen on the estrogen receptor were determined in a whole cell assay as described immediately below.
(§2) Experimental Procedure for ER Agonist Cell Assay
(§3) • Cell line and plasmids: The human hepatoma cell line Huh-7 was used for co-transfections. Cells were maintained in culture medium and split when they reached 80-90% confluency. Three plasmids were routinely used in the assay. pG5luc contained the firefly luciferase gene and was obtained from Promega. […] Cell Culture Media and Reagents:
(§4) Culture medium: DMEM (phenol red free), 10% charcoal treated HyClone serum, 1% L-glutamine, and 1% penicillin/streptomycin
(§5) Transfection medium: DMEM (phenol red free) and 10% charcoal treated HyClone serum
(§6) Luciferase reagents: Dual-Glo Luciferase Kit (Promega cat #E2980) was used for determination of luciferase activity.
(§7) Transient transfections were preformed using the lipophilic reagent FuGENE 6 (Roche). Cells were split and seeded at 7.2×10^6/150 cm^2 flask in 20 mL of transfection medium. 5-6 hrs later cells were co-transfected with either pG5luc and ERαLBD or pG5luc and ERβLBD(pm418). Transfected cells grew overnight and were then used the next day.
(§8) Cells transfected 24 hrs earlier were harvested, counted, and seeded in wells containing compound at a density of 1×10^4 cells/well. […] Cells were incubated overnight at 37° C. and 5% CO2 in the presence of compound. The following day medium was aspirated from the wells and 100 ul of Dual-Glo™ Luciferase Reagent were added to each well. Plates were incubated at room temperature for 20 minutes and firefly luminescence was measured on a luminometer. Next, 50 ul of Dual-Gbo™ Stop & Glo® Reagent were added to each well and after 20 minutes at room temperature the Renilla luminescence was measured on a luminometer. Values from each well were normalized by dividing the firefly luminescence by the Renilla luminescence. Estradiol was used as the standard and run in each assay. The fold induction over background for each compound was compared to the maximum fold induction for estradiol in each assay. […] Those compounds that were not tested, or the data was unavailable are marked as NT.

[2] = target: ligand binding domain of the estrogen receptor beta chain (ERβLBD) that contained a point mutation at amino acid residue 418 (pm418) (Homo sapiens, UniProt Q92731); experiment: ER agonist cell assay (ERβ), Huh-7 co-transfection, luciferase; type: cell-based; conditions: for ERβ % of Max E2 Response: percent of the maximum estradiol fold change, Huh-7, pG5luc and ERβLBD(pm418); for EC50: Huh-7 cells co-transfected with pG5luc and ERβLBD(pm418), overnight incubation, luciferase
Method: as §1, §2, §3, §4, §5, §6, §7, §8

[3] = test system: hairless female SKH, 1-hr mice; experiment: Animal model for reversal of wrinkles: skin thickness model, topical dosing, skin thickness and hyaluronic acid; type: in vivo, mouse; conditions: QD, three days
From the text: Animal Model for Reversal of Wrinkles
Uzuka et al. describes an increase in mouse back skin water content, hyaluronic acid (HA) content, and hyaluronic acid synthetase activity following topical application or subcutaneous injection of estradiol (Biochimica et Biophysica Acta, 627, 199-206, 1980; Biochimica et Biophysica Acta 673, 387-393, 1981). […] Thus, this model may be used to as a preliminary screen to assess the potential for estrogen modulators to alleviate wrinkles in human skin.
The skin thickness model uses hairless female SKH, 1-hr mice. Mice aged to approximately 11 weeks are introduced into the laboratory environment and acclimated for at least 1 week prior to use in the study may be used. Each group typically consisted of 7 animals that may be run in parallel with vehicle and the positive control estradiol. Based on binding and/or cellular assay data, compounds are chosen for screening in this model. Those compounds include the products of Examples, 2, 9, 15, 46, 47, 48, 51, 52, 61, 135, and 137. Prior to topical application to mouse dorsal skin, a sufficient quantity of each compound is dissolved in a solvent generally consisting of ethanol and propylene glycol (70/30% v/v) (vehicle) to achieve the final concentration specified in Table C below. Animals are dosed topically QD or BID, for three days. Each dose consisted of 100 microliters of vehicle or drug applied uniformly to the entire dorsal surface (˜18 cm^2). All animals are sacrificed approximately 18-24 hours after the final dose. Skin thickness (ST) is measured using a caliper. HA is extracted from the skin and quantitated using commercially-available enzyme-linked immunosorbent assays (ELISAs)(HA).
Data are presented as percent of the estradiol response after subtracting out the ST for vehicle-treated mouse skin. The estradiol response is set to 100% and the vehicle resoibse becines 0%.

SMILES | melting point [°C] | EC50 [1] [nM] | ERα % of Max E2 Response [1] [%] | ERβ % of Max E2 Response [2] [%] | EC50 [2] [nM] | HA (hyaluronic acid), percent of the estradiol response ([3]; 1% topical) [%] | ST (skin thickness), percent of the estradiol response ([3]; 1% topical) [%] | HA (hyaluronic acid), percent of the estradiol response ([3]; 3% topical) [%] | ST (skin thickness), percent of the estradiol response ([3]; 3% topical) [%]
CN(C)CC1(c2onc(-c3ccc(O)cc3)c2-c2ccccc2)CC1.Cl | 234 |  |  |  |  |  |  |  | 
Oc1ccc(-c2noc(C3(CNCC4CCCO4)CC3)c2-c2ccccc2)cc1 (racemic) [Example 30, (±)-4-[4-Phenyl-5-(1-{[(tetrahydro-furan-2-ylmethyl)-amino]-methyl}-cyclopropyl)-isoxazol-3-yl]-phenol] | 276 to 277 |  |  |  |  |  |  |  | 
CCC(O)(CC)C1(c2onc(-c3ccc(O)cc3)c2-c2ccccc2)CC1 [Example 50, 4-{5-[1-(1-Ethyl-1-hydroxy-propyl)-cyclopropyl]-4-phenyl-isoxazol-3-yl}-phenol] | 118 to 119 | 124 | 80.2 | 1 |  |  |  |  | 
Cl.Oc1ccc(-c2noc(C3(CN4CCSCC4)CC3)c2-c2ccccc2)cc1 [Example 32, 4-[4-Phenyl-5-(1-thiomorpholin-4-ylmethyl-cyclopropyl)-isoxazol-3-yl]-phenol hydrochloride salt] | 249 to 250 | 22.9 | 38.5 | 0.999 | 19.5 |  |  |  | 
C[C@H](O)C1(c2onc(-c3ccc(O)cc3)c2-c2ccccc2)CC1 [Example 100, Alt. D, (S)-(+)-4-{5-[1-(1-Hydroxy-ethyl)-cyclopropyl]-4-phenyl-isoxazol-3-yl}-phenol] | 220 to 221 |  |  |  |  |  |  |  | 
CCOc1ncccc1OCC1(c2onc(-c3ccc(O)cc3)c2-c2ccccc2)CC1 [Example 6, 4-{5-[1-(2-Ethoxy-pyridin-3-yloxymethyl)-cyclopropyl]-4-phenyl-isoxazol-3-yl}-phenol] | 190 to 192 | 237 | 9.48 | >3.19 | > 10000 |  |  |  | 
Oc1ccc(-c2noc(C3(C(O)(C4CC4)C4CC4)CC3)c2-c2ccccc2)cc1 [Example 99, 4-{5-(1-(Dicyclopropyl-hydroxy-methyl)-cyclopropyl]-4-phenyl-isoxazol-3-yl}-phenol] | 169 to 170 | 38.4 | 45.3 | 0.679 |  |  |  |  | 
NCC1(c2onc(-c3ccc(O)cc3)c2-c2ccccc2)CC1 [Example 105, 4-{5-[1-(Aminomethyl)cyclopropyl]-4-phenylisoxazol-3-yl}phenol] | 220 to 225 |  |  |  |  |  |  |  | 
O=C(OCC1(c2onc(-c3ccc(O)cc3)c2-c2ccccc2)CC1)C1CC1 [Example 51] |  | 152 | 63.8 | 75.2 | 84.2 | 35 | 19 |  | 
Cl.Oc1ccc(-c2noc(C3(CN4CCCNCC4)CC3)c2-c2ccccc2)cc1 | 193 to 194 |  |  |  |  |  |  |  | 
CC(O)C1(c2onc(-c3ccc(O)cc3)c2-c2ccccc2)CC1 (racemic) [Example 45, (±)-4-{5-[1-(1-Hydroxy-ethyl)-cyclopropyl]-4-phenyl-isoxazol-3-yl}-phenol] | 196 to 197 | 47.5 | 79.3 | 81.2 | 46.7 |  |  |  | 
Oc1ccc(-c2noc(C3(C[n+]4ccccc4)CC3)c2-c2ccccc2)cc1.[Cl-] | 244 to 245 |  |  |  |  |  |  |  | 
CCCC(O)C1(c2onc(-c3ccc(O)cc3)c2-c2ccccc2)CC1 (racemic) [Example 15, (±)-4-{5-[1-(1-Hydroxy-butyl)-cyclopropyl]-4-phenyl-isoxazol-3-yl}-phenol] |  | 24.3 | 43.8 | 15.6 | 150 |  |  | 47 | 41
Oc1ccc(-c2noc(C3(COc4c(F)cccc4OC(F)(F)F)CC3)c2-c2ccccc2)cc1 [Example 5, 4-{5-[1-(2-Fluoro-6-trifluoromethoxy-phenoxymethyl)-cyclopropyl]-4-phenyl-isoxazol-3-yl}-phenol] | 132 to 133 | 45.9 | 19.3 | >4.51 | > 10000 |  |  |  | 
CC(C)COC(=O)C1(c2onc(-c3ccc(O)cc3)c2-c2ccccc2)CC1 [Example 60, 1-[3-(4-Hydroxy-phenyl)-4-phenyl-isoxazol-5-yl]-cyclopropanecarboxylic acid isobutyl ester] | 109 to 110 | 12.9 | 23.3 | >3.71 | > 10000 |  |  |  | 
CC[C@H](O)C1(c2onc(-c3ccc(O)cc3)c2-c2ccccc2)CC1 [Example 100, Alt. F, (S)-(+)-4-{5-[1-(1-hydroxy-propyl)-cyclopropyl]-4-phenyl-isoxazol-3-yl}-phenol] | 165 to 166 |  |  |  |  |  |  |  | 
CCOc1ccccc1OCC1(c2onc(-c3ccc(O)cc3)c2-c2ccccc2)CC1 [Example 4, 4-{5-[1-(2-Ethoxy-phenoxymethyl)-cyclopropyl]-4-phenyl-isoxazol-3-yl}-phenol] | 148 to 149 | 141 | 14.7 | >0.727 | > 10000 |  |  |  | 
CC(C)C(=O)OCC1(c2onc(-c3ccc(O)cc3)c2-c2ccccc2)CC1 [Example 52] |  | 138 | 66 | 121 | 117 |  |  | 34 | 21
Cl.Oc1ccc(-c2noc(C3(CNc4ccncc4)CC3)c2-c2ccccc2)cc1 | 316 to 317 |  |  |  |  |  |  |  | 
CC1(c2onc(-c3ccc(O)cc3)c2-c2ccccc2)CC1 [Example 36, 4-[5-(1-methyl-cyclopropyl)-4-phenyl-isoxazol-3-yl]phenol] | 212 to 214 |  |  |  |  |  |  |  | 
CCC(NCC1(c2onc(-c3ccc(O)cc3)c2-c2ccccc2)CC1)c1ccccc1 (racemic) [Example 25, (±)-4-(4-Phenyl-5-{1-[(1-phenyl-propylamino)-methyl]-cyclopropyl}-isoxazol-3-yl)-phenol] | 126 to 127 | 26.5 | 18.2 | >0.571 | > 10000 |  |  |  | 
Oc1ccc(-c2noc(C3CC3)c2-c2ccccc2)cc1 [Example 35, 4-(5-Cyclopropyl-4-phenyl-isoxazol-3-yl)-phenol] | 197 to 200 | 171 | 25 | 5.78 | 130 |  |  |  | 
